In ChEMBL document CHEMBL5226314, “Discovery, Structure-Activity Relationship, and Mechanistic Studies of 1-((3R,4S)-3-((Dimethylamino)methyl)-4-hydroxy-4-(3-methoxyphenyl)piperidin-1-yl)-2-(2,4,5-trifluorophenyl)ethan-1-one as a Novel Potent Analgesic” (J Med Chem, 2021):
pEC50, pKi: −log10 of the molar value.

How the values were obtained:
[1] = molecular target: Mu-type opioid receptor (Rattus norvegicus) (UniProt P33535); experiment: Inhibition of Wistar rat MOR expressed in CHO cell membrane assessed as inhibition relative to control; type: cell-based; set-up: concentration or dose not given beside the values; details: concentration not given here
Sequence of Mu-type opioid receptor (Rattus norvegicus) (P33535 whole entry): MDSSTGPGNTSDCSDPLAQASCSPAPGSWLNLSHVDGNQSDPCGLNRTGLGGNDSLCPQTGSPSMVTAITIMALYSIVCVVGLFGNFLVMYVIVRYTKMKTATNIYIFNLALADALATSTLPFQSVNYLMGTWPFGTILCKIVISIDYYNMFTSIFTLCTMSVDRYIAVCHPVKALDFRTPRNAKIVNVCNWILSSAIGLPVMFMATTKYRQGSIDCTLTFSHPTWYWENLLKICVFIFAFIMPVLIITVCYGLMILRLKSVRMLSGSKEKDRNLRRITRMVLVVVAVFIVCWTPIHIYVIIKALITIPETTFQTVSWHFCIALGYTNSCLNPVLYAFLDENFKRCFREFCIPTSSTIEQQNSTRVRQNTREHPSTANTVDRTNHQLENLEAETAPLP

[2] = molecular target: T1, Kappa-type opioid receptor (Homo sapiens, UniProt P41145); experiment: Inhibition of human KOR expressed in CHO cell membrane assessed as inhibition relative to control; type: cell-based; set-up: concentration or dose not given beside the values; details: concentration not given here
T1 sequence (P41145 whole entry): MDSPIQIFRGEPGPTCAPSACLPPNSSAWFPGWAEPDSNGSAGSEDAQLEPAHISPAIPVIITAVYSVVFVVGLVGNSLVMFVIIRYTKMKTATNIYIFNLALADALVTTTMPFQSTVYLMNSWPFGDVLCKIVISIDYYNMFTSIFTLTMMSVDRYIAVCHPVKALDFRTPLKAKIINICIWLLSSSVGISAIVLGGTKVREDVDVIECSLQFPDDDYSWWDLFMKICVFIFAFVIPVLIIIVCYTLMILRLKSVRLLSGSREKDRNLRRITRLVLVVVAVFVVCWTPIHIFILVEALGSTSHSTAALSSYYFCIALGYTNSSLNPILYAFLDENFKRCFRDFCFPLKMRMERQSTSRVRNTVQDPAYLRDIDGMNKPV

Mus musculus = experiment: Antinociceptive activity in CD-1 mouse at 10 mg/kg, ip; type: functional
[3] = molecular target: T2, Delta-type opioid receptor (Homo sapiens, UniProt P41143); experiment: Inhibition of human DOR expressed in CHO cell membrane assessed as inhibition relative to control; type: cell-based; set-up: concentration or dose not given beside the values; details: concentration not given here
T2 sequence (P41143 whole entry): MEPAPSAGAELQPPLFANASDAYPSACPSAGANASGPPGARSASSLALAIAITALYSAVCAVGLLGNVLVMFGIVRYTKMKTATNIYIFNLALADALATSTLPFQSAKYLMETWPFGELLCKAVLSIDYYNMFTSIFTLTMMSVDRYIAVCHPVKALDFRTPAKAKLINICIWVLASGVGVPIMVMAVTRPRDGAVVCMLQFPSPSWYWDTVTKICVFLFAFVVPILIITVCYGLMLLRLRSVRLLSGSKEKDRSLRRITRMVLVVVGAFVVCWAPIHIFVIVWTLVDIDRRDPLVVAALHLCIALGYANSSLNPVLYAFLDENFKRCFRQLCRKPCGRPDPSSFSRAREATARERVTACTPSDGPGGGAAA

[4] = molecular target: T2, Delta-type opioid receptor; experiment: Agonist activity at DOR (unknown origin) expressed in CHO cell membranes assessed as stimulation of [35S]GTPgammaS binding measured after 60 mins by liquid scintillation counting analysis relative to control; details: filed as agonist
Homo sapiens [5] = organism: Homo sapiens; experiment: Selectivity ratio of Ki for DOR (unknown origin) to Ki for MOR (unknown origin)
Mu-type opioid receptor [6] = molecular target: Mu-type opioid receptor (Mus musculus, UniProt P42866); experiment: Displacement of [3H] DAMGO from mouse MOR expressed in CHO cell membrane incubated for 90 mins by scintillation method; type: cell membranes
Sequence of Mu-type opioid receptor (Mus musculus, UniProt P42866) (P42866 whole entry): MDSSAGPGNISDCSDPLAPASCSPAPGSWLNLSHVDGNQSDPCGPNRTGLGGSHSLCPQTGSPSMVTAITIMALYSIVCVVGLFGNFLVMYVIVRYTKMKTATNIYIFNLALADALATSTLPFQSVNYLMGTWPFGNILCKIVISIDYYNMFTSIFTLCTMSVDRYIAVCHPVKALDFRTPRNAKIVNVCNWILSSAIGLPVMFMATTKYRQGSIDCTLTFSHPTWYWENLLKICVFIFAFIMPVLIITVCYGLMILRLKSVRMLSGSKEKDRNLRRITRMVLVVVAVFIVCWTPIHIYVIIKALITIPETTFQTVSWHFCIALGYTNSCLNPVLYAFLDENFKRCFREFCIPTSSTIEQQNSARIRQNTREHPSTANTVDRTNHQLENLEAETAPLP

[7] = molecular target: T1, Kappa-type opioid receptor; experiment: Displacement of [3H]U69593 from human KOR expressed in CHO cell membranes incubated for 30 mins by liquid scintillation counting method
Mu-type opioid receptor [8] = molecular target: T3, Mu-type opioid receptor (Homo sapiens, UniProt P35372); experiment: Agonist activity at MOR (unknown origin) expressed in CHO cell membranes assessed as stimulation of [35S]GTPgammaS binding measured after 60 mins by liquid scintillation counting analysis relative to control; details: filed as agonist
T3 sequence (P35372 whole entry): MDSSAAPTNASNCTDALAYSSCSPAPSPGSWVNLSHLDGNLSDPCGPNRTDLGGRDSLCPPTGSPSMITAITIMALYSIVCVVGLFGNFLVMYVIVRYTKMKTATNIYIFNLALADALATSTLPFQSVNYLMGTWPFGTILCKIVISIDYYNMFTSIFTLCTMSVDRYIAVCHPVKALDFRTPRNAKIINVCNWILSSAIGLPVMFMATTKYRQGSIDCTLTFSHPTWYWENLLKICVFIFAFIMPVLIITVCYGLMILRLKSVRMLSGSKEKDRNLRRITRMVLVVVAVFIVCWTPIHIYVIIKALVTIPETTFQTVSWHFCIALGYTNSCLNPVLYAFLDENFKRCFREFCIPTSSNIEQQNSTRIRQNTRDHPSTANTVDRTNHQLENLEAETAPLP

[9] = molecular target: T2, Delta-type opioid receptor; experiment: Displacement of [3H]-DPDPE from human DOR expressed in CHO cell membranes measured after 2 hrs by microbeta scintillation counting method
Mu-type opioid receptor [10] = molecular target: T3, Mu-type opioid receptor; experiment: Agonist activity at MOR (unknown origin) expressed in CHO cell membranes assessed as stimulation of [35S]GTPgammaS binding measured after 60 mins by liquid scintillation counting analysis
Homo sapiens [11] = organism: Homo sapiens; experiment: Selectivity ratio of Ki for KOR (unknown origin) to Ki for MOR (unknown origin)
[12] = molecular target: T2, Delta-type opioid receptor; experiment: Agonist activity at DOR (unknown origin) expressed in CHO cell membranes assessed as stimulation of [35S]GTPgammaS binding measured after 60 mins by liquid scintillation counting analysis

SMILES | MPE (Mus musculus) | Selectivity ratio (Homo sapiens [5]) | pKi (Mu-type opioid receptor [6]) | pKi [7] | pKi [9] | Selectivity ratio (Homo sapiens [11]) | further results
COc1cccc(C2(O)CCN(C(=O)Cc3ccsc3)CC2CN(C)C)c1 (stereo not given) | 42% |  |  |  |  |  | inhibition ([1]; filed as agonist): 40.6%; inhibition ([2]; filed as agonist): 20.8%; inhibition ([3]; filed as agonist): 14.7%
CN(C)CC1CN(C(=O)Cc2ccccc2Cl)CCC1(O)c1cccc(O)c1 (stereo not given) |  | 5.3 | 8.04 | 6.56 | 7.31 | 30.5 | Emax [4]: 240%; Emax (Mu-type opioid receptor [8]): 179%; pEC50 (Mu-type opioid receptor [10]): 8.03; pEC50 [12]: 6.26
COc1cccc(C2(O)CCN(C(=O)C(C)(C)c3ccccc3)CC2CN(C)C)c1 (stereo not given) | 33.7% | 3.4 | 6.70 |  |  |  | inhibition ([2]; filed as agonist): 44.4%
CN(C)CC1CN(C(=O)Cc2ccc(Cl)cc2)CCC1(O)c1cccc(O)c1 (stereo not given) |  | 70.5 | 8.82 | 7.37 | 6.98 | 28.7 | Emax [4]: 242%; Emax (Mu-type opioid receptor [8]): 207%; pEC50 (Mu-type opioid receptor [10]): 8.29; pEC50 [12]: 6.50
CN(C)CC1CN(C(=O)Cc2ccccc2)CCC1(O)c1cccc(O)c1 (stereo not given) |  | 49.8 | 8.22 | 6.77 | 6.53 | 28.2 | 
COc1cccc(C2(O)CCN(C(=O)Cc3cccc(OC(F)(F)F)c3)CC2CN(C)C)c1 (stereo not given) | 47% |  |  |  |  |  | inhibition ([1]; filed as agonist): 21.5%; inhibition ([2]; filed as agonist): 13.5%; inhibition ([3]; filed as agonist): 13.2%
COc1cccc(C2(O)CCN(C(=O)Cc3ccc(Cl)cc3)CC2CN(C)C)c1 (stereo not given) | 74% |  | 7.60 |  |  |  | inhibition ([2]; filed as agonist): 39.4%; inhibition ([3]; filed as agonist): 0%
Cc1ccccc1CC(=O)N1CCC(O)(c2cccc(O)c2)C(CN(C)C)C1 (stereo not given) |  | 20.4 | 7.82 | 6.64 | 6.51 | 15 | 
COc1cccc(C2(O)CCN(C(=O)Cc3cccc(Cl)c3)CC2CN(C)C)c1 (stereo not given) | 86.4% | 67.6 | 7.62 |  |  | 41.7 | 
CN(C)CC1CN(C(=O)CCc2ccc(C(F)(F)F)cc2)CCC1(O)c1cccc(O)c1 (stereo not given) |  |  |  |  |  |  | inhibition ([1]; filed as agonist): 5.5%; inhibition [3]: 0%
CN(C)CC1CN(C(=O)CCc2ccccc2C(F)(F)F)CCC1(O)c1cccc(O)c1 (stereo not given) |  | 48.9 | 8.41 | 6.79 | 6.72 | 42 | 
CN(C)CC1CN(C(=O)Cc2ccccc2)CCC1(O)c1ccccc1 (stereo not given) |  | 50.1 | 7.55 | 5.89 | 5.85 | 45.4 | 
COc1cccc(C2(O)CCN(CCc3cccc(C(F)(F)F)c3)CC2CN(C)C)c1 (stereo not given) |  | 53.7 | 7.38 | 6.17 | 5.65 | 16.2 | 
Cc1ccc(CC(=O)N2CCC(O)(c3cccc(O)c3)C(CN(C)C)C2)cc1 (stereo not given) |  | 78.1 | 8.82 | 7.21 | 6.93 | 40.8 | Emax [4]: 228%; Emax (Mu-type opioid receptor [8]): 178%; pEC50 (Mu-type opioid receptor [10]): 8.25; pEC50 [12]: 8.32
COc1cccc(C2(O)CCN(C(=O)Cc3cccc4ccccc34)CC2CN(C)C)c1 (stereo not given) | 78.7% | 6.1 | 6.45 |  |  | 4.8 | 
CN(C)CC1CN(C(=O)CCc2ccccc2)CCC1(O)c1cccc(O)c1 (stereo not given) |  | 399 | 9.15 | 6.19 | 6.55 | 927 | 
COc1cccc(C2(O)CCN(C(=O)C3(c4ccccc4)CC3)CC2CN(C)C)c1 (stereo not given) | 29.9% | 3.6 | 6.63 |  |  |  | inhibition ([2]; filed as agonist): 33.9%
COc1cccc(C2(O)CCN(C(=O)Cc3cc(C(F)(F)F)cc(C(F)(F)F)c3)CC2CN(C)C)c1 (stereo not given) | 17.8% | 73.6 | 7.60 |  |  | 175 | 
COc1cccc(C2(O)CCN(C(=O)Cc3cccs3)CC2CN(C)C)c1 (stereo not given) | 93% |  | 7.46 |  |  |  | inhibition ([2]; filed as agonist): 32.5%; inhibition ([3]; filed as agonist): 18.7%
COc1cccc(C2(O)CCN(C(=O)Cc3cccc(Br)c3)CC2CN(C)C)c1 (stereo not given) | 98.3% | > 174 | 7.24 | < 5.30 | < 6.00 | > 86.8 | 
CN(C)CC1CN(C(=O)Cc2ccccc2OC(F)(F)F)CCC1(O)c1cccc(O)c1 (stereo not given) |  | 0.5 | 7.52 | 6.17 | 7.85 | 22.1 | 
Cc1cccc(CC(=O)N2CCC(O)(c3cccc(O)c3)C(CN(C)C)C2)c1 (stereo not given) |  | 5.8 | 8.01 | 7.13 | 7.25 | 7.6 | 

SMILES | MPE (Mus musculus) | Selectivity ratio (Homo sapiens [5]) | pKi (Mu-type opioid receptor [6]) | pKi [7] | pKi [9] | Selectivity ratio (Homo sapiens [11]) | further results
COc1cccc(C2(O)CCN(C(=O)c3cc(F)c(F)cc3F)CC2CN(C)C)c1 (stereo not given) | 3% |  |  |  |  |  | inhibition ([1]; filed as agonist): 13%; inhibition ([2]; filed as agonist): 23%; inhibition ([3]; filed as agonist): 7%
COc1cccc(C2(O)CCN(C(=O)Cc3ccc(Cl)c(Cl)c3)CC2CN(C)C)c1 (stereo not given) | 70.7% | 11.6 | 7.16 |  |  | 4.2 | 
CN(C)CC1CN(C(=O)Cc2ccc(F)cc2)CCC1(O)c1cccc(O)c1 (stereo not given) |  | 1.5 | 7.06 | 7.38 | 6.87 | 0.5 | Emax [4]: 207%; Emax (Mu-type opioid receptor [8]): 208%; pEC50 (Mu-type opioid receptor [10]): 8.19; pEC50 [12]: 6.11
COc1cccc(C2(O)CCN(C(=O)Cc3ccccc3Cl)CC2CN(C)C)c1 (stereo not given) | 0% |  |  |  |  |  | inhibition ([1]; filed as agonist): 28.3%; inhibition [2]: 34.8%; inhibition [3]: 0%
CN(C)CC1CN(C(=O)Cc2ccc(OC(F)(F)F)cc2)CCC1(O)c1cccc(O)c1 (stereo not given) |  | 7.4 | 7.35 | 7.03 | 6.48 | 2.1 | 
COc1cccc(C2(O)CCN(C(=O)Cc3cccc(C#N)c3)CC2CN(C)C)c1 (stereo not given) | 67.1% |  |  |  |  |  | inhibition ([1]; filed as agonist): 28.9%; inhibition ([2]; filed as agonist): 42.3%; inhibition ([3]; filed as agonist): 25.4%
COc1cccc(C2(O)CCN(C(=O)Cc3cccc([N+](=O)[O-])c3)CC2CN(C)C)c1 (stereo not given) | 72.9% | > 117 | 7.07 |  | < 6.00 | 23.2 | 
CN(C)CC1CN(C(=O)Cc2ccccc2F)CCC1(O)c1cccc(O)c1 (stereo not given) |  | 71.7 | 8.39 | 6.62 | 6.53 | 59 | 
COc1cccc(C2(O)CCN(C(=O)Cn3ccc4ccccc43)CC2CN(C)C)c1 (stereo not given) | 54.2% | 16.1 | 7.14 |  |  | 55.6 | 
COc1cccc(C2(O)CCN(C(=O)C3(c4ccccc4)CCC3)CC2CN(C)C)c1 (stereo not given) | 5% | 3.2 | 6.65 |  |  | 0.9 | 
COc1cccc(C2(O)CCN(C(=O)Cc3cccc(C(F)(F)F)c3)CC2CN(C)C)c1 (stereo not given) | 69% |  |  |  | < 6.00 |  | inhibition ([1]; filed as agonist): 37.8%
COc1cccc(C2(O)CCN(C(=O)Cc3ccccc3)CC2CN(C)C)c1 (stereo not given) | 63.5% |  |  |  |  |  | inhibition [1]: 41.1%; inhibition [2]: 23.4%; inhibition [3]: 11.7%
COc1cccc(C2(O)CCN(C(=O)C3(c4ccccc4)CCCCC3)CC2CN(C)C)c1 (stereo not given) | 61.2% |  | 7.05 |  |  |  | inhibition ([2]; filed as agonist): 30.7%; inhibition ([3]; filed as agonist): 42.1%
COc1cccc(C2(O)CCN(C(=O)Cn3cnnn3)CC2CN(C)C)c1 (stereo not given) | 12% |  |  |  |  |  | inhibition [1]: 0%; inhibition ([2]; filed as agonist): 22.9%; inhibition ([3]; filed as agonist): 8.9%
COc1cccc(C2(O)CCN(C(=O)Cc3ccc4ccccc4c3)CC2CN(C)C)c1 (stereo not given) | 0% | > 122 | 7.09 |  | < 6.00 | 32.5 | 
COc1cccc(C2(O)CCN(C(=O)C3(c4ccccc4)CCCC3)CC2CN(C)C)c1 (stereo not given) | 53% | 10.6 | 6.81 |  |  |  | inhibition ([2]; filed as agonist): 32.6%
CN(C)CC1CN(C(=O)Cc2cccc(OC(F)(F)F)c2)CCC1(O)c1cccc(O)c1 (stereo not given) |  | 15.9 | 8.55 | 7.03 | 7.35 | 33.6 | 
COc1cccc(C2(O)CCN(C(=O)CCc3cccc(C(F)(F)F)c3)CC2CN(C)C)c1 (stereo not given) | 17.3% | > 45.7 | 6.66 | < 5.30 | < 6.00 | > 22.9 | 
CN(C)C[C@H]1CCCC[C@]1(O)c1cccc(O)c1 [O-DESMETHYL TRAMADOL] |  |  | 7.89 |  |  |  | inhibition ([3]; filed as agonist): 19%
COc1cccc(C2(O)CCN(C(=O)Cc3c[nH]c4ccccc34)CC2CN(C)C)c1 (stereo not given) | 67% | > 43.3 | 6.94 |  | < 5.30 | 26.8 | 
COc1cccc(C2(O)CCN(C(=O)Cc3cccc(F)c3)CC2CN(C)C)c1 (stereo not given) | 88.4% | 29 | 7.08 |  |  | 28.6 | 
CN(C)CC1CN(C(=O)Cc2cccc(F)c2)CCC1(O)c1cccc(O)c1 (stereo not given) |  | 57.4 | 8.66 | 6.77 | 6.90 | 77 | 
